ChEMBL document CHEMBL6109046, “Recent advances in developing targeted protein degraders” (Eur J Med Chem, 2025)
Each block holds one compound with its values, some of them ahead of it.

What was measured:
[1] = PROTAC activity at SMARCA2/VHL in human MV4-11 cells assessed as protein degradation incubated for 18 hrs by Western blot analysis; type: cell-based; details: MV4-11, 18 h
[2] = biological target: Protein cereblon/Cyclin-dependent kinase 9 (Homo sapiens, UniProt P50750+Q96SW2); experiment: PROTAC activity at CRBN/CDK9 in human MV4-11 cells assessed as induction of CDK9 degradation measured for 3 days by Western blot analysis; type: cell-based
Sequence of Protein cereblon/Cyclin-dependent kinase 9 (P50750 whole entry): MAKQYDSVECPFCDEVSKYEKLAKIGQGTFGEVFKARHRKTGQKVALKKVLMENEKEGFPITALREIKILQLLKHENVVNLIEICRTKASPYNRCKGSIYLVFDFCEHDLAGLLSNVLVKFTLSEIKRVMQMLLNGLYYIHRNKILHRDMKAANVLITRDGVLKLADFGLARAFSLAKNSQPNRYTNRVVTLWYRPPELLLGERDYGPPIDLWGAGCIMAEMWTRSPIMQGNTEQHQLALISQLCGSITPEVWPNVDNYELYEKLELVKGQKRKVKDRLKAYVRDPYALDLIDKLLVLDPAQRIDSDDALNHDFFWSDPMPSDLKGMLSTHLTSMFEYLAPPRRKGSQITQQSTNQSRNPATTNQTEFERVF
Sequence of Protein cereblon/Cyclin-dependent kinase 9 (Q96SW2 whole entry): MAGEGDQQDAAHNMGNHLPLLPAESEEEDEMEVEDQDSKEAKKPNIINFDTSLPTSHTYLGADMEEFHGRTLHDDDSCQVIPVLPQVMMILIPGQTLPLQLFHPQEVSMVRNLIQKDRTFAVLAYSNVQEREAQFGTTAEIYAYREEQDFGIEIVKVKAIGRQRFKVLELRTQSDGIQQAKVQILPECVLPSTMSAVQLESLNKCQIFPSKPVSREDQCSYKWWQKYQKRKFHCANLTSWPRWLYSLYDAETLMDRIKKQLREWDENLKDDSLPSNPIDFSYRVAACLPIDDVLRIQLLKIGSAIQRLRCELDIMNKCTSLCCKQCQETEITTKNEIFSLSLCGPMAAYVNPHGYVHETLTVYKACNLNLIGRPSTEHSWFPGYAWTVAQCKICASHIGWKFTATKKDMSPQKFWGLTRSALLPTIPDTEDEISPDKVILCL

[3] = biological target: T1, Protein cereblon/Androgen receptor (Homo sapiens, UniProt P10275+Q96SW2); experiment: PROTAC activity at AR/CRBN in human LNCaP cells assessed as protein degradation incubated for 24 hrs by Western blot analysis; type: cell-based
T1 sequence (P10275 whole entry): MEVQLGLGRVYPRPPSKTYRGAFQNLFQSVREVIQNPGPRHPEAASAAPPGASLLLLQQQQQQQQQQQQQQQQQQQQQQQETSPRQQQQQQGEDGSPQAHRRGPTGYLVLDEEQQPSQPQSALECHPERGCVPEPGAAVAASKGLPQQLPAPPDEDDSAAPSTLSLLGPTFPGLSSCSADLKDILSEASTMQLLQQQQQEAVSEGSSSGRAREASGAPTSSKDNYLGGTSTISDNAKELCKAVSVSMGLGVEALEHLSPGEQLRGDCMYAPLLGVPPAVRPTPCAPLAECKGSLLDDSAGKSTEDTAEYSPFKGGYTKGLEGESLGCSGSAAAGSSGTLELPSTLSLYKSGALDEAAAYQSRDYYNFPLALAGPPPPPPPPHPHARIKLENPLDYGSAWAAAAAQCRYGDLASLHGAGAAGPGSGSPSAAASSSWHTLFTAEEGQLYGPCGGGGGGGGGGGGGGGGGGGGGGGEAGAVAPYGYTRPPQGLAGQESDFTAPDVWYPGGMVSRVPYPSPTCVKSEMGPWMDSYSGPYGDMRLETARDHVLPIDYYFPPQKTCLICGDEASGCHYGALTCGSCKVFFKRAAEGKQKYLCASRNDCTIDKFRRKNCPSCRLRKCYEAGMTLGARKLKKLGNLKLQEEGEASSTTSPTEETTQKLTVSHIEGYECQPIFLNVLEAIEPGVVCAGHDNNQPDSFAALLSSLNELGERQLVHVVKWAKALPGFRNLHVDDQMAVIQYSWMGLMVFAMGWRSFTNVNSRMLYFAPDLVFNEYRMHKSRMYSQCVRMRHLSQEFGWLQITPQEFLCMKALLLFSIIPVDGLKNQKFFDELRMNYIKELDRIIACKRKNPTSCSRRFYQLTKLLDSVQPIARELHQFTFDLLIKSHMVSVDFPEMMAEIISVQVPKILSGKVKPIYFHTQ
T1 sequence (Q96SW2 whole entry): as the sequence (Q96SW2 whole entry) above

[4] = PROTAC activity at VHL/BRD4 in human HeLa cells assessed as degradation of BRD4 incubated for 16 hrs by Western blot analysis; type: cell-based
[5] = biological target: Protein cereblon/Poly [ADP-ribose] polymerase 1 (Homo sapiens, UniProt P09874+Q96SW2); experiment: PROTAC activity at CRBN/PARP1 in human MDA-MB-231 cells assessed as degradation of PARP1 measured after 24 hrs by Western blot analysis; type: cell-based
Sequence of Protein cereblon/Poly [ADP-ribose] polymerase 1 (P09874 whole entry): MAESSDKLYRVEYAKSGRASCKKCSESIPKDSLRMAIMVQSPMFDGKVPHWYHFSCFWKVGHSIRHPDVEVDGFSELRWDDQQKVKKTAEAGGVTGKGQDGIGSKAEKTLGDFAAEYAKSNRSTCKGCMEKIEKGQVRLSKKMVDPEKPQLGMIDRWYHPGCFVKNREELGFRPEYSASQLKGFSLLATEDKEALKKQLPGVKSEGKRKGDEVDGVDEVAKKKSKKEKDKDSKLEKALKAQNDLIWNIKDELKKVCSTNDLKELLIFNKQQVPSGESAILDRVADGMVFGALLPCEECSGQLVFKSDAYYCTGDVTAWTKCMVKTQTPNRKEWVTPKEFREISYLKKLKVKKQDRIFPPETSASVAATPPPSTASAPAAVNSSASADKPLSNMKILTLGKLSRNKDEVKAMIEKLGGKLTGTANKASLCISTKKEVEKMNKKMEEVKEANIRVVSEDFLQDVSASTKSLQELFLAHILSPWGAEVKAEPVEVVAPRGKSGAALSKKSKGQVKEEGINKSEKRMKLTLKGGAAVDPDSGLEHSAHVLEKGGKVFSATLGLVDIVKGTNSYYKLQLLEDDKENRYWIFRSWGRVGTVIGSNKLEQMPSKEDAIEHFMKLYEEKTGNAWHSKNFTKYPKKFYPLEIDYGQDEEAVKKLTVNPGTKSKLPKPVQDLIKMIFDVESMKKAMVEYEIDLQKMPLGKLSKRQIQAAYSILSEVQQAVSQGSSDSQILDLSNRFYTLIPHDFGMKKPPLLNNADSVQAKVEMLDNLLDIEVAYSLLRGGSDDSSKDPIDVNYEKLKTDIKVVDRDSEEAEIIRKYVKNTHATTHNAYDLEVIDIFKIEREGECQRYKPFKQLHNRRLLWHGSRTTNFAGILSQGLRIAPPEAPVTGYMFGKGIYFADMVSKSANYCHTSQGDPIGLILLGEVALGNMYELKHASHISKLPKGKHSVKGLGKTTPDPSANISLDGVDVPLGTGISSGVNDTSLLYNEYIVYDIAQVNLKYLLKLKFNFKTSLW
Sequence of Protein cereblon/Poly [ADP-ribose] polymerase 1 (Q96SW2 whole entry): as the sequence (Q96SW2 whole entry) above

[6] = biological target: von Hippel-Lindau disease tumor suppressor/Bromodomain-containing protein 9 (Homo sapiens, UniProt Q9H8M2+P40337); experiment: PROTAC activity at VHL/BRD9 in human HeLa cells assessed as protein degradation by Western blot analysis; type: cell-based
Sequence of von Hippel-Lindau disease tumor suppressor/Bromodomain-containing protein 9 (Q9H8M2 whole entry): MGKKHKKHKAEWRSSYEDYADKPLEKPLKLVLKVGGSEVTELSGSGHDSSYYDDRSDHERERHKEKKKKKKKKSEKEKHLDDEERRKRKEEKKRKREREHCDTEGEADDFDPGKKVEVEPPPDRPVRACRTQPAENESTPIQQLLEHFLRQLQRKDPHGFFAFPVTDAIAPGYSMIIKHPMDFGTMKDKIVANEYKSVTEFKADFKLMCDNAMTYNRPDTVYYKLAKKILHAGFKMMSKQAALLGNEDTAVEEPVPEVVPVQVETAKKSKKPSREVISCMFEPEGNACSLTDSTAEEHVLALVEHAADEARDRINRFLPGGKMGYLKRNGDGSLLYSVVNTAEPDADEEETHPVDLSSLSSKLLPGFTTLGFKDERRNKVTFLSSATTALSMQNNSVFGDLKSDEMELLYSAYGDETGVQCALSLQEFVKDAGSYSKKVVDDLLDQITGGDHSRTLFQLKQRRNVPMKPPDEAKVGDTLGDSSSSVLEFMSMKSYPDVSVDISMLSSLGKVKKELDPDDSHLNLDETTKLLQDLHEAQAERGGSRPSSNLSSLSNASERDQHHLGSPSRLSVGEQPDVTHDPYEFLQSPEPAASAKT
Sequence of von Hippel-Lindau disease tumor suppressor/Bromodomain-containing protein 9 (P40337 whole entry): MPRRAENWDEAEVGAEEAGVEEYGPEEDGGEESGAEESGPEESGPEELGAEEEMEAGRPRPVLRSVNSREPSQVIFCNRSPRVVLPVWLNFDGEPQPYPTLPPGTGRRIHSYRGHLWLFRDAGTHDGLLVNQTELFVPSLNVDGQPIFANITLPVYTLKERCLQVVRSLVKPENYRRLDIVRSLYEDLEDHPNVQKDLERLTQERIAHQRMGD

[7] = PROTAC activity at human VHL/BRD4 in human MV4-11 cells assessed as degradation of BRD4 incubated for 16 hrs by Western blot analysis; type: cell-based; details: MV4-11, 16 h
[8] = biological target: von Hippel-Lindau disease tumor suppressor/Tyrosine-protein kinase BTK; experiment: PROTAC activity at VHL/BTK in human THP-1 cells assessed as induction of BTK degradation incubated for 24 hrs by immunoblotting analysis
[9] = biological target: Proprotein convertase subtilisin/kexin type 9 (Homo sapiens, UniProt Q8NBP7); experiment: Binding affinity to PCSK9 (unknown origin) assessed as inhibition constant
Sequence of Proprotein convertase subtilisin/kexin type 9 (Q8NBP7 31-152 limits assumed): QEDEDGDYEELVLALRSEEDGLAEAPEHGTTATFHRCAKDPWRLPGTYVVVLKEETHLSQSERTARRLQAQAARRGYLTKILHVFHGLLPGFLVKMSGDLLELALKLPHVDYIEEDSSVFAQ
Sequence of Proprotein convertase subtilisin/kexin type 9 (Q8NBP7 153-692 limits assumed): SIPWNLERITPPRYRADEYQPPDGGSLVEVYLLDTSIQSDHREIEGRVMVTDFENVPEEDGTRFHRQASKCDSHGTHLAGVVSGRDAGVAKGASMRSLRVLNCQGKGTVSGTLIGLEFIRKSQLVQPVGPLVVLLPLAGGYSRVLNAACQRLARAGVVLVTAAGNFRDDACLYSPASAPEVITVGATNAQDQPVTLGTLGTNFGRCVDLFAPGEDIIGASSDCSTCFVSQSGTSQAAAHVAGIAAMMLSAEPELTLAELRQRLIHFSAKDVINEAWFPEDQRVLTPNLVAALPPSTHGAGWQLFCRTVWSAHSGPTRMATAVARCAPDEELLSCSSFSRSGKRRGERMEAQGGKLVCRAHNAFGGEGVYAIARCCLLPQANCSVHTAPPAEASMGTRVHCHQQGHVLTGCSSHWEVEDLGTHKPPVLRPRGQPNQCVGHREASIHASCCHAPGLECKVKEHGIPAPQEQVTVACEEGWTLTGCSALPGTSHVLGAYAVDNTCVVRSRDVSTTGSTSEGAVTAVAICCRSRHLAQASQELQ

[10] = Downregulation of induced PCSK9 expression in HEK293 cells by Western blot analysis; type: functional, cell-based; details: Homo sapiens
[11] = biological target: von Hippel-Lindau disease tumor suppressor/Bromodomain-containing protein 4 (Homo sapiens, UniProt O60885+P40337); experiment: PROTAC activity at human VHL/BRD4 in human HeLa cells assessed as degradation of BRD4 incubated for 24 hrs by Western blot analysis; type: cell-based
Sequence of von Hippel-Lindau disease tumor suppressor/Bromodomain-containing protein 4 (P40337 whole entry, looked up, other chains not shown): as the sequence (P40337 whole entry) above

[12] = biological target: T1, Protein cereblon/Androgen receptor; experiment: PROTAC activity at CRBN/AR in human VCaP cells assessed as induction of AR degradation incubated for 24 hrs by Western blot analysis; type: cell-based

SMILES: Cc1ncsc1-c1ccc(CNC(=O)[C@@H]2C[C@@H](O)CN2C(=O)[C@@H](NC(=O)C2(F)CC2)C(C)(C)C)c(OCCOc2ccc(CN3CCN(c4cc(-c5ccccc5O)nnc4N)CC3)cc2)c1
DC50 [1]: 6 nM

SMILES: COc1cc(/C=C/C(=O)N2CCC=CC2=O)cc(OC)c1OCCN1CCN(C(=O)CN2CCC(C(=O)Nc3ncc(SCc4ncc(C(C)(C)C)o4)s3)CC2)CC1
DC50 [2]: 9 nM

SMILES: CC1(C)[C@H](NC(=O)c2ccc(OCC(=O)NCCCOCCOCCOCCCN(C(=O)CCl)C(C(=O)NCc3ccccc3)c3ccc(Cl)c(Cl)c3)cc2)C(C)(C)[C@H]1Oc1ccc(C#N)c(Cl)c1 (some centres undefined)
DC50 [3]: < 10000 nM

SMILES: COc1ccc(C2=N[C@H](c3ccc(Cl)cc3)[C@H](c3ccc(Cl)cc3)N2C(=O)N2CCN(CC(=O)NCCOCCOCCOCCOCCn3cc(-c4ccc(-n5cc6cccc(C(N)=O)c6n5)cc4)nn3)C(=O)C2)c(OC(C)C)c1
DC50 [5]: < 10000 nM

SMILES: Cc1ncsc1-c1ccc([C@H](CC[C@H](C)CCN2CCC(c3ccc4c(c3)n(C3CCCC3)c3nc(=O)c5c(Br)cccc5n43)CC2)NC(=O)[C@@H]2C[C@@H](O)CN2C(=O)[C@@H](NC(=O)C2(F)CC2)C(C)(C)C)cc1
DC50 [1]: 1 nM

SMILES: COc1cc(-c2cn(C)c(=O)c3cnccc23)c(OC)cc1CN1CCC(OCCCCCC(=O)N2CCN(c3ccc4c(NCCN)nc(C5(c6ccc(Cl)cc6)CCCCC5)nc4c3)CC2)CC1
DC50 [6]: 90 nM

SMILES: CN[C@@H](C)C(=O)N[C@H](C(=O)N1Cc2cc(OCCOCCOCCOCCOCCOC(=O)N3CCC[C@H](n4nc(-c5ccc(Oc6ccc(F)cc6F)cc5)c(C(N)=O)c4N)C3)ccc2C[C@@H]1C(=O)NC1CCCc2ccccc21)C(C)(C)C (some centres undefined)
DC50 [8]: 182 nM

SMILES: CCOC(=O)C[C@@H](c1ccc(C)c(CN2C[C@@H](C)Oc3ccccc3S2(=O)=O)c1)c1cc(OCCNC(=O)CNC(=O)C[C@@H]2N=C(c3ccc(Cl)cc3)c3c(sc(C)c3C)-n3c(C)nnc32)c2c(c1)nnn2C
DC50 [2]: < 500 nM

SMILES: CC(C)(C)OC(=O)N=C(NCCC[C@H](NC(=O)OC(C)(C)C)C(=O)NCCOCCOc1cc2c(cc1Oc1ccc(-c3ccc(C(=O)O)cc3)c(F)c1)[C@@](C)(CC(=O)Nc1nccs1)NCC2)NC(=O)OC(C)(C)C
Ki [9]: 107 nM
IC50 [10]: 3400 nM

SMILES: Cc1ncsc1-c1ccc([C@H](C)NC(=O)[C@@H]2C[C@@H](O)CN2C(=O)[C@H](c2cc(N3CCC(CN4CCC(OC5CC(Oc6cc(N7[C@H]8CC[C@H]7CN(c7cc(-c9ccccc9O)nnc7N)C8)ccn6)C5)CC4)CC3)no2)C(C)C)cc1 (some centres undefined)
DC50 [1]: 0.03 nM

SMILES: COc1cc(O[C@H]2C(C)(C)[C@H](NC(=O)c3ccc(N4CCC(CN5CCN(c6ccc(C(=O)N[C@H]7CCC(=O)NC7=O)c(F)c6)CC5)CC4)cc3)C2(C)C)ccc1C#N [LUXDEGALUTAMIDE]
DC50 [12]: < 1 nM

Further lines, results first:

DC50 [4]: 36000 nM
SMILES: COC(=O)C[C@H]1[C@]2(C)C3=C(C)[C@H](c4ccoc4-c4ccc(C(=O)NCCCNC(=O)C[C@@H]5N=C(c6ccc(Cl)cc6)c6c(sc(C)c6C)-n6c(C)nnc65)cc4)C[C@H]3O[C@@H]2[C@@H]2OC(=O)[C@]3(C)C=CC(=O)[C@@]1(C)[C@@H]23

DC50 [4]: < 10000 nM
SMILES: Cc1sc2c(c1C)C(c1ccc(Cl)cc1)=N[C@@H](CC(=O)NCCCCOc1ccc(C3CC(c4ccc(Br)cc4)=NN3C(=O)CCl)cc1)c1nnc(C)n1-2 (some centres undefined)

DC50 [4]: < 10000 nM
SMILES: Cc1sc2c(c1C)C(c1ccc(Cl)cc1)=N[C@@H](CC(=O)NCCCCOc1ccc(Oc3ccc(N(Cc4ccccc4)C(=O)CCl)cc3)cc1)c1nnc(C)n1-2

DC50 [7]: 3000 nM
SMILES: Cc1sc2c(c1C)C(c1ccc(Cl)cc1)=N[C@H](CC(=O)NCCCn1cc(CNC(=O)c3ccc(S(=O)(=O)N(CC#N)C(=O)CC45CC6CC(CC(C6)C4)C5)cc3)nn1)c1nnc(C)n1-2

DC50 [2]: < 200 nM
SMILES: Cc1sc2c(c1C)C(c1ccc(Cl)cc1)=N[C@@H](CC(=O)NCCCCCCCCCCNC(=O)[C@@]13CCC(C)(C)C[C@@H]1[C@@H]1C(=O)C=C4[C@]5(C)C=C(C#N)C(=O)C(C)(C)[C@H]5CC[C@]4(C)[C@@]1(C)CC3)c1nnc(C)n1-2

DC50 [11]: 10800 nM
SMILES: Cc1sc2c(c1C)C(c1ccc(Cl)cc1)=NC(CC(=O)NCCOCCOCCNC(=O)c1cccc(S(=O)(=O)Nc3ccc(C)c4c(C#N)c[nH]c34)c1)c1nnc(C)n1-2 (centres undefined)

DC50 [7]: 900 nM
SMILES: Cc1sc2c(c1C)C(c1ccc(Cl)cc1)=N[C@@H](CC(=O)NCCCOCCOCCOCCCNC(=O)COc1c(Br)cc(/C=C3\C(=O)Nc4ccc(I)cc43)cc1Br)c1nnc(C)n1-2 (stereo in doubt)
